Results published in BindingDB's records for patent US20240124439 (Pfizer, 2024).

Biological target: T1, Tyrosine-protein kinase ITK/TSK (Homo sapiens, UniProt Q08881)
T1 sequence (Q08881 whole entry): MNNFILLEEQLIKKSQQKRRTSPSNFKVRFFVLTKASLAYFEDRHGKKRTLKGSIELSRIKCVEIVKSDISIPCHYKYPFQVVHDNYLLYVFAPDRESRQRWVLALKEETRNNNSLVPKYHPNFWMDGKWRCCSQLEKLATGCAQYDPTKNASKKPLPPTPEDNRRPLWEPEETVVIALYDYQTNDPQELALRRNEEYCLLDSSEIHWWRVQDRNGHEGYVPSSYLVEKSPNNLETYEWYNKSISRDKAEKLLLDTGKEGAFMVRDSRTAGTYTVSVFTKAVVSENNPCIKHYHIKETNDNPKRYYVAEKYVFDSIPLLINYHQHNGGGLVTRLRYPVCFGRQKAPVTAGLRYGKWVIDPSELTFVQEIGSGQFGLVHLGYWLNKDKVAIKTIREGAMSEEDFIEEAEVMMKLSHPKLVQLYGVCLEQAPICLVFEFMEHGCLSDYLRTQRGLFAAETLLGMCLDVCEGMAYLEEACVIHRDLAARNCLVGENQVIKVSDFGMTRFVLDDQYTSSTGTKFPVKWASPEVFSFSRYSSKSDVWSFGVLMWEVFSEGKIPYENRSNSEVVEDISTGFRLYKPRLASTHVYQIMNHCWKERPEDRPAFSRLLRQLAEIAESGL
Assay: ITK Enzyme Assay
Protocol: 1.0 M HEPES Buffer pH 7.5 solution was prepared as follows: 238.3 g HEPES free acid (Sigma) and 800 mL of water were combined, and the mixture was stirred until complete dissolution. The pH was adjusted to 7.5 via titration with 5N NaOH and the volume adjusted to 1000 mL. The solution was filtered and sterilized.ITK assay buffer was prepared as follows: 50 mL of HPLC-grade water was treated with 2 mL of 1.0 M HEPES Buffer, 500 μL of 2% Gelatin (Sigma), 1.0 mL of aqueous MgCl2 solution (1.0 M), and 1.0 mL of aqueous glutathione solution (0.5 M), and the solution was mixed. The solution was brought to 99 mL in a graduated cylinder by addition of water and sterilized through a 0.2 μm filter. 0.1 mL of Brij-35 Surfact-Amps Detergent Solution (10% w/v aqueous solution, ThermoFisher) and 1.0 mL of ATP (Teknova,100 mM) were added and the solution was mixed.Preparation of 1.33 ITK enzyme solution was as follows: 49.99 mL of ITK assay buffer was treated with 4.1 μL of ITK enzyme (ITK FL (N-Flag and C-His tagged, […]) Lake Pharma, 0.25 mg/ml in a buffer containing 25 mM Tris pH 7.8, 150 mM NaCl, 10% glycerol and 2 mM TCEP) and the mixture was gently agitated. The resulting solution was stored on ice. 30 Minutes prior to use, the enzyme solution was removed from ice and equilibrated to RT by incubation in a RT water bath.

| IC50 [nM] | SMILES |
| --- | --- |
| 136 | C[C@H](C(=O)N(C)c1cnc2[nH]c(-c3n[nH]c4c3C[C@@H]3C[C@]3(C)C4)nc2c1)N1CCOCC1 [US20240124439, Example 26] |
| 66 | CN(C(=O)CC1CC(F)(F)C1)c1cnc2nc(-c3n[nH]c4c3C[C@@H]3C[C@]3(C)C4)[nH]c2c1 [US20240124439, Example 48] |
| 2000 | C[C@@H](C(=O)Nc1ccc2[nH]c(-c3n[nH]c4c3CCC(C)(C)C4)nc2c1)N1CCOCC1 [US20240124439, Example 33] |
| 147 | CCc1nc2[nH]c(-c3n[nH]c4c3C[C@@H]3C[C@]3(C)C4)nc2cc1N(C)C(=O)CN1CCOCC1 [US20240124439, Example 37] |
| 747 | CC(C)(C(=O)Nc1cnc2[nH]c(-c3n[nH]c4c3C[C@@H]3C[C@]3(C)C4)nc2c1)N1CCOCC1 [US20240124439, Example 16] |
| 62 | CN(C(=O)CC1CC2(C1)CC(F)(F)C2)c1cnc2nc(-c3n[nH]c4c3C[C@@H]3C[C@]3(C)C4)[nH]c2c1 [US20240124439, Example 54] |
| 28 | CCN(C(=O)[C@H](C)C1CCOCC1)c1cnc2[nH]c(-c3n[nH]c4c3CCC(C)(C)C4)nc2c1 [US20240124439, Example 18] |
| 33 | CN(C(=O)CC1CC2(C1)CC2(F)F)c1cnc2nc(-c3n[nH]c4c3C[C@@H]3C[C@]3(C)C4)[nH]c2c1 (stereo not given in full) [US20240124439, Example 50] |
| 25 | CN(C(=O)CC1CC2(CCC2)C1)c1cnc2nc(-c3n[nH]c4c3C[C@@H]3C[C@]3(C)C4)[nH]c2c1 [US20240124439, Example 49] |
| 147 | C[C@@H](C(=O)N(C)c1cnc2[nH]c(-c3n[nH]c4c3CCC(C)(C)C4)nc2c1)N1CCOCC1 [US20240124439, Example 14] |
